According to ChEMBL document CHEMBL6096670, “Design, synthesis and biological evaluation of novel β-carbolines as antitumor agents via targeting autophagy in colorectal cancer” (Eur J Med Chem, 2025):
pIC50: −log10 of the molar value.

Tests used:
BGC-823 = assay: Antiproliferative activity against human BGC-823 cells assessed as inhibition of cell growth incubated for 48 hrs by MTT assay; assay type: functional, cell-based; settings: BGC-823, 48 h
MCF7 = assay: Antiproliferative activity against human MCF7 cells assessed as inhibition of cell growth incubated for 48 hrs by MTT assay; assay type: functional, cell-based; settings: MCF7, 48 h
A-375 = assay: Antiproliferative activity against human A-375 cells assessed as inhibition of cell growth incubated for 48 hrs by MTT assay; assay type: functional, cell-based; settings: A-375, 48 h
786-0 = assay: Antiproliferative activity against human 786-0 cells assessed as inhibition of cell growth incubated for 48 hrs by MTT assay; assay type: functional, cell-based; settings: 786-0, 48 h
HT-29 = assay: Antiproliferative activity against human HT-29 cells assessed as inhibition of cell growth incubated for 48 hrs by MTT assay; assay type: functional, cell-based; settings: HT-29, 48 h
HepG2 = assay: Antiproliferative activity against human HepG2 cells assessed as inhibition of cell growth incubated for 48 hrs by MTT assay; assay type: functional, cell-based; settings: HepG2, 48 h
CWR22R = assay: Antiproliferative activity against human 22Rv1 cells assessed as inhibition of cell growth incubated for 48 hrs by MTT assay; assay type: functional, cell-based; settings: 22Rv1, 48 h
SK-OV-3 = assay: Antiproliferative activity against human SK-OV-3 cells assessed as inhibition of cell growth incubated for 48 hrs by MTT assay; assay type: functional, cell-based; settings: SK-OV-3, 48 h
HCT-116 [1] = assay: Induction of apoptosis in human HCT-116 assessed as viable cells at 100 uM incubated for 24 hrs Annexin V FITC/PI double staining based flow cytometry (Rvb =90.0%); assay type: functional; settings: read-out: Activity
HCT-116 [2] = assay: Induction of apoptosis in human HCT-116 assessed as early apoptotic cells at 100 uM incubated for 24 hrs Annexin V FITC/PI double staining based flow cytometry (reference value: 1.07 %); assay type: functional
HCT-116 [3] = assay: Induction of apoptosis in human HCT-116 assessed as late apoptotic cells at 100 uM incubated for 24 hrs Annexin V FITC/PI double staining based flow cytometry (reference value: 8.02 %); assay type: functional
HCT-116 [4] = assay: Induction of apoptosis in human HCT-116 assessed as necrotic cells at 100 uM incubated for 24 hrs Annexin V FITC/PI double staining based flow cytometry (reference value: 0.94 %); assay type: functional
HCT-116 [5] = assay: Induction of apoptosis in human HCT-116 assessed as viable cells at 100 uM pretreated with Z-VAD-FMK for 30 mins followed by compound addition and measured after 24 hrs by Annexin V-FITC/PI double staining based flow cytometry (reference value: 90.8%); assay type: functional; settings: read-out: Activity
HCT-116 [6] = assay: Induction of apoptosis in human HCT-116 assessed as early apoptotic cells at 100 uM pretreated with Z-VAD-FMK for 30 mins followed by compound addition and measured after 24 hrs by Annexin V-FITC/PI double staining based flow cytometry (reference value: […]); assay type: functional
HCT-116 [7] = assay: Induction of apoptosis in human HCT-116 assessed as late apoptotic cells at 100 uM pretreated with Z-VAD-FMK for 30 mins followed by compound addition and measured after 24 hrs by Annexin V-FITC/PI double staining based flow cytometry (reference value: 7.43 %); assay type: functional
HCT-116 [8] = assay: Induction of apoptosis in human HCT-116 assessed as necrotic cells at 100 uM pretreated with Z-VAD-FMK for 30 mins followed by compound addition and measured after 24 hrs by Annexin V-FITC/PI double staining based flow cytometry (reference value: 0.84 %); assay type: functional

Compound	pIC50 (BGC-823)	pIC50 (MCF7)	pIC50 (A-375)	pIC50 (786-0)	pIC50 (HT-29)	pIC50 (HepG2)	pIC50 (CWR22R)	pIC50 (SK-OV-3)	viability at 100 µM (HCT-116 [1]) [%]	Activity (HCT-116 [2]) [%]	Activity (HCT-116 [3]) [%]	Activity (HCT-116 [4]) [%]	viability at 100 µM (HCT-116 [5]) [%]	Activity (HCT-116 [6]) [%]	Activity (HCT-116 [7]) [%]	Activity (HCT-116 [8]) [%]
CCN(CC)CCCNCc1cc2c3ccccc3n(Cc3ccccc3)c2c(CNCCCN(CC)CC)n1	5.14	4.82	5.11	4.97	5.26	4.84	4.95	5.02	–	–	–	–	–	–	–	–
CCCCn1c2ccccc2c2cc(CNCCCN(CC)CC)nc(CNCCCN(CC)CC)c21	4.95	4.98	4.80	5.03	5.10	4.81	5.08	4.80	–	–	–	–	–	–	–	–
CCN(CC)CCCNCc1cc2c([nH]c3ccccc32)c(CNCCCN(CC)CC)n1	< 4.70	< 4.70	< 4.70	4.83	4.90	< 4.70	4.79	< 4.70	–	–	–	–	–	–	–	–
O=c1[nH]cc(F)c(=O)[nH]1 [FLUOROURACIL]	–	–	–	–	–	–	–	–	43.6	39.6	15.2	1.62	75.5	3.01	17.3	4.13
CCN(CC)CCCNCc1cc2c3ccccc3n(Cc3ccc(F)cc3)c2c(CNCCCN(CC)CC)n1	5.06	5.16	5.32	5.27	5.24	5.25	5.04	5.11	–	–	–	–	–	–	–	–
CCN(CC)CCCNCc1cc2c3ccccc3n(C)c2c(CNCCCN(CC)CC)n1	4.77	< 4.70	< 4.70	4.85	5.06	< 4.70	4.90	< 4.70	–	–	–	–	–	–	–	–
